Laboratory results taken from patent US12168019B1, “8-hydroxy quinoline derivatives for enhancing telomerase reverse transcriptase (TERT) expression” (Sierra Sciences, Inc., priority 2010, dated 2024).

What follows are compounds tested on human TERT expression (hTERT mRNA transcripts) (assay: Quantitative real-time RT-PCR of hTERT mRNA transcripts in compound-treated cells; also: test concentration or dose not given here).
Format: cell-based
Source text: Telomerase is a ribonucleoprotein complex composed of the catalytic protein subunit (human telomerase reverse transcriptase or hTERT) and the RNA template. hTERT expression level can be measured by PCR.
Quantitative Reverse Transcription PCR can be run according to procedures outlined in Yajima et al. (Yajima, T. et al. Quantitative Reverse Transcription-PCR Assay of the RNA Component of Human Telomerase Using the TaqMan Fluorogenic Detection System Clinical Chemistry, 44:12, 2441-2445, 1998).
The principle of real-time PCR was first described by Heid et al. (Heid C. A., Stevens J., Livak K. J., Williams P. M. Real time quantitative PCR. Genome Res., 6: 986-994, 1996). Briefly, amplification of the target sequence is monitored per PCR cycle by detecting the fluorescence signal emitted by an internal probe that is degraded by the 5′ nuclease activity of the Taq polymerase. The emission signal accumulates in each sample, and the Ct required to reach a given fluorescence threshold is determined (Ct stands for Cycle Threshold and is a measure of the number of PCR cycles that are required to amplify a target—thus, a lower Ct score means that there is more abundant hTERT mRNA). Thus, the C1 value of a sample inversely correlates to the quantity of the starting cDNA which correlates to the number of mRNA transcripts. Using the cDNA of known quantity, a standard curve can be generated and used to determine the starting amount of mRNA transcripts based on the […] of each sample.
Quantitative real-time PCR can be done on cDNA from test compound-treated and nontreated cells by use of a ABI Prism 7900 Sequence Detection System (PE Applied Biosystems, Foster City, CA) following the Assays-on-Demand protocol (PE Applied Biosystems, Foster City, CA). Quantitative data can be analyzed using the Sequence Detection System software version 2.1 (PE Applied Biosystems).
The following compounds were tested in assays designed to identify compounds that enhance human TERT expression. The compounds turned on human TERT expression in these assays.

| Structure (SMILES) | Average Number of hTERT Transcripts |
| --- | --- |
| CCC(=O)NC(c1ccc(N(C)C)cc1)c1ccc2cccnc2c1O (stereo not drawn) [Compound 1001] | 12.47 |
| CN1CCN(Cc2cc(COCc3ccccc3)c3cccnc3c2O)CC1 [Compound 1003] | 10.05 |
| Oc1c(C(Nc2ccccn2)c2ccc(OC3CCCC3)cc2)ccc2cccnc12 (stereo not drawn) [Compound 1004] | 12.11 |
| Oc1c(C(Nc2ccccn2)c2cccc(Cl)c2Cl)ccc2cccnc12 (stereo not drawn) [Compound 1006] | 25.82 |
| COC(=O)c1ccc(C(Nc2cc(C)ccn2)c2ccc3ccc(C)nc3c2O)cc1 (stereo not drawn) [Compound 1008] | 43.18 |
| Oc1c(C(Nc2ccccn2)c2c(Cl)cccc2Cl)ccc2cccnc12 (stereo not drawn) [Compound 1009] | 50.29 |
| COc1ccc(C(=O)NC(c2ccco2)c2cc(Cl)c3cccnc3c2O)cc1 (stereo not drawn) [Compound 1012] | 12.01 |
| COc1cccc(C(=O)NC(c2ccc(OC)c(OC)c2)c2cc(Cl)c3cccnc3c2O)c1 (stereo not drawn) [Compound 1013] | 40.42 |
| COc1ccc(C(=O)NC(c2ccc(Cl)cc2)c2cc(Cl)c3cccnc3c2O)cc1 (stereo not drawn) [Compound 1014] | 11.55 |
| O=C(COc1ccccc1)NC(/C=C/c1ccccc1)c1cc(Cl)c2cccnc2c1O (stereo not drawn) [Compound 1015] | 63.93 |
| COc1ccc(C(=O)NC(/C=C/c2ccccc2)c2cc(Cl)c3cccnc3c2O)cc1 (stereo not drawn) [Compound 1016] | 10.9 |
| COc1cccc(C(=O)NC(/C=C/c2ccccc2)c2cc(Cl)c3cccnc3c2O)c1 (stereo not drawn) [Compound 1017] | 96.98 |
| Oc1c(Br)cc(Br)c2cccnc12 [Compound 1019] | 271.75 |
| Oc1c(I)cc(Cl)c2cccnc12 [Compound 1021] | 60.68 |
| CC(=O)NC(c1ccc(Br)cc1)c1ccc2cccnc2c1O (stereo not drawn) [Compound 1022] | 60.01 |
| COc1ccc(C(NC(C)=O)c2ccc3cccnc3c2O)cc1OC (stereo not drawn) [Compound 1023] | 160.65 |
| CC(=O)NC(c1ccc(C)cc1)c1ccc2cccnc2c1O (stereo not drawn) [Compound 1024] | 165.68 |
| CCCCC(=O)NC(c1ccccc1OC)c1cc([N+](=O)[O-])c2cccnc2c1O (stereo not drawn) [Compound 1027] | 19.72 |
| CC(=O)NC(c1ccc(C(C)C)cc1)c1ccc2cccnc2c1O (stereo not drawn) [Compound 1030] | 26.47 |
| CCCCC(=O)NC(c1ccccc1Cl)c1cc([N+](=O)[O-])c2cccnc2c1O (stereo not drawn) [Compound 1031] | 44.8 |
| CCC(=O)NC(c1ccc(OC)c(OC)c1)c1cc(Cl)c2cccnc2c1O (stereo not drawn) [Compound 1032] | 39.96 |
| CCOc1cc(C(NC(C)=O)c2cc([N+](=O)[O-])c3cccnc3c2O)ccc1O (stereo not drawn) [Compound 1033] | 28.91 |

| Structure (SMILES) | Average Number of hTERT Transcripts |
| --- | --- |
| CC(=O)NC(c1ccco1)c1cc([N+](=O)[O-])c2cccnc2c1O (stereo not drawn) [Compound 1034] | 44.71 |
| CCC(=O)NC(/C=C/c1ccccc1)c1cc([N+](=O)[O-])c2cccnc2c1O (stereo not drawn) [Compound 1035] | 66.72 |
| CCCC(=O)NC(c1ccc(O)c(OCC)c1)c1cc([N+](=O)[O-])c2cccnc2c1O (stereo not drawn) [Compound 1036] | 65 |
| CC(=O)NC(c1ccc(Cl)cc1)c1cc([N+](=O)[O-])c2cccnc2c1O (stereo not drawn) [Compound 1037] | 55.41 |
| CCC(=O)NC(c1ccco1)c1cc(Cl)c2cccnc2c1O (stereo not drawn) [Compound 1039] | 30.9 |
| CCCCC(=O)NC(c1ccc(OC)cc1)c1cc([N+](=O)[O-])c2cccnc2c1O (stereo not drawn) [Compound 1040] | 25.16 |
| CCC(=O)NC(c1ccccc1Cl)c1cc(Cl)c2cccnc2c1O (stereo not drawn) [Compound 1041] | 20.78 |
| CC(C)C(=O)NC(c1ccc(Cl)cc1Cl)c1ccc2cccnc2c1O (stereo not drawn) [Compound 1042] | 10.53 |
| CCC(=O)NC(c1ccccc1OC)c1cc(Cl)c2cccnc2c1O (stereo not drawn) [Compound 1043] | 15.13 |
| CCCC(=O)NC(c1ccc(Cl)cc1)c1cc([N+](=O)[O-])c2cccnc2c1O (stereo not drawn) [Compound 1044] | 92.93 |
| Cc1ccc(C(NC(=O)C2CCCCC2)c2ccc3cccnc3c2O)cc1 (stereo not drawn) [Compound 1047] | 43.89 |
| CCCC(=O)NC(c1cccs1)c1cc([N+](=O)[O-])c2cccnc2c1O (stereo not drawn) [Compound 1048] | 58.04 |
| CCC(=O)NC(c1ccc(C)cc1)c1cc([N+](=O)[O-])c2cccnc2c1O (stereo not drawn) [Compound 1049] | 49.12 |
| CC(=O)NC(c1ccccc1)c1cc([N+](=O)[O-])c2cccnc2c1O (stereo not drawn) [Compound 1050] | 47.68 |
| CCC(=O)NC(c1ccccc1OC)c1cc([N+](=O)[O-])c2cccnc2c1O (stereo not drawn) [Compound 1051] | 45.24 |
| CCCCC(=O)NC(c1ccc(OC)c(OC)c1)c1cc([N+](=O)[O-])c2cccnc2c1O (stereo not drawn) [Compound 1053] | 47.54 |
| CCCCC(=O)NC(c1ccc(Cl)cc1)c1cc([N+](=O)[O-])c2cccnc2c1O (stereo not drawn) [Compound 1054] | 8.59 |
| CCCCC(=O)NC(c1ccco1)c1cc([N+](=O)[O-])c2cccnc2c1O (stereo not drawn) [Compound 1055] | 28.89 |
| CCCC(=O)NC(c1ccc(C(C)C)cc1)c1cc([N+](=O)[O-])c2cccnc2c1O (stereo not drawn) [Compound 1056] | 62.15 |
| CC(=O)NC(c1ccc(C(C)C)cc1)c1cc(Cl)c2cccnc2c1O (stereo not drawn) [Compound 1057] | 12.42 |
| CC(=O)NC(c1cccs1)c1ccc2cccnc2c1O (stereo not drawn) [Compound 1058] | 47.99 |
| CCN(CC)c1ccc(C(NC(=O)C(C)C)c2ccc3cccnc3c2O)cc1 (stereo not drawn) [Compound 1060] | 65.91 |

| Structure (SMILES) | Average Number of hTERT Transcripts |
| --- | --- |
| CCCCC(=O)NC(c1ccc(OC)cc1)c1cc(Cl)c2cccnc2c1O (stereo not drawn) [Compound 1061] | 128.91 |
| CC(C)C(=O)NC(c1ccc(C(C)C)cc1)c1cc(Cl)c2cccnc2c1O (stereo not drawn) [Compound 1062] | 47.98 |
| CCCCC(=O)NC(c1cccs1)c1cc([N+](=O)[O-])c2cccnc2c1O (stereo not drawn) [Compound 1063] | 205.2 |
| CC(C)C(=O)NC(c1ccc2c(c1)OCO2)c1cc([N+](=O)[O-])c2cccnc2c1O (stereo not drawn) [Compound 1064] | 52.74 |
| O=C(CCc1ccccc1)NC(c1ccc2c(c1)OCO2)c1ccc2cccnc2c1O (stereo not drawn) [Compound 1065] | 24.47 |
| CCCC(=O)NC(c1ccc(N(C)C)cc1)c1cc(Cl)c2cccnc2c1O (stereo not drawn) [Compound 1066] | 43.68 |
| CCCCC(=O)NC(c1cccs1)c1cc(Cl)c2cccnc2c1O (stereo not drawn) [Compound 1067] | 16.2 |
| CCCCC(=O)NC(/C=C/c1ccccc1)c1cc([N+](=O)[O-])c2cccnc2c1O (stereo not drawn) [Compound 1069] | 101.8 |
| CCCC(=O)NC(c1ccc(N(CC)CC)cc1)c1cc(Cl)c2cccnc2c1O (stereo not drawn) [Compound 1070] | 68.65 |
| CC(C)C(=O)NC(c1ccc(C(C)C)cc1)c1cc([N+](=O)[O-])c2cccnc2c1O (stereo not drawn) [Compound 1071] | 70.74 |
| COc1ccc(C(NC(=O)C2CCCCC2)c2cc([N+](=O)[O-])c3cccnc3c2O)cc1OC (stereo not drawn) [Compound 1072] | 93.44 |
| CCC(=O)NC(c1ccccc1Cl)c1cc([N+](=O)[O-])c2cccnc2c1O (stereo not drawn) [Compound 1074] | 49.89 |
| CCCC(=O)NC(c1ccco1)c1cc(Cl)c2cccnc2c1O (stereo not drawn) [Compound 1077] | 15.88 |
| Cc1ccc2ccc(C(Nc3ccccn3)c3cccc([N+](=O)[O-])c3)c(O)c2n1 (stereo not drawn) [Compound 1078] | 36.96 |
| Cc1ccnc(NC(c2cccc(Cl)c2)c2ccc3ccc(C)nc3c2O)c1 (stereo not drawn) [Compound 1080] | 26.36 |
| Oc1c(C(Nc2ccccn2)c2ccc(Cl)c(Cl)c2)ccc2cccnc12 (stereo not drawn) [Compound 1082] | 7.54 |
| Cc1ccnc(NC(c2cccc(Br)c2)c2ccc3ccc(C)nc3c2O)c1 (stereo not drawn) [Compound 1083] | 18.44 |
| O=C(NC(c1ccccc1)c1ccc2cccnc2c1O)c1ccccc1 (stereo not drawn) [Compound 1086] | 48.77 |
| CC(C)C(=O)NC(c1ccco1)c1ccc2cccnc2c1O (stereo not drawn) [Compound 1087] | 240.41 |
| Cc1ccc(C(NC(=O)C(C)C)c2ccc3cccnc3c2O)cc1 (stereo not drawn) [Compound 1088] | 191.81 |
| CCN1CCN(Cc2ccc3cccnc3c2O)CC1 [Compound 1089] | 38.29 |
| Cc1ccc(S(=O)(=O)Nc2cc(Cl)c(O)c3ncccc23)cc1 [Compound 1092] | 96.33 |
